Like-named read-outs stand apart in the source and are kept apart here.
Assay: Pharmacokinetic evaluation in humans
Type: in vivo
Conditions: human; for clearance / Cmax / Vd / half-life / AUC(0-t) / AUC(0-inf): plasma
Procedure: Plasma and urine RLip-EA-OH concentrations were measured at BASi, Inc. (West Lafayette, Ind.) using a LC/MS/MS method with positive turbo ion spray, in the multiple reaction-monitoring mode. The quantifiable range for human plasma was 1.00 to 500 ng/mL and QC samples were included at 3.00, 75.0 and 375 ng/mL.
The PK population included subjects who received RLip-EA-OH and had ≧1 post-dose PK measurement. […] Plasma samples from 24 subjects (6 RLip-EA-OH subjects per cohort) were analyzed (Tables 16 and 17).

## C[C@H](NC(=O)[C@H](CCC(=O)O)NC(=O)CCCC[C@@H]1CCSS1)C(=O)O [RLip-EA-OH, N-(R)-lipoyl-L-glutamyl-L- alanine]
150 mg, compartmental, read-out: CL, Median (converted)
  clearance: 363 mL/min
150 mg, compartmental, read-out: CL, Minimum, maximum
  clearance: 260 to 512 mL/min
150 mg, compartmental, read-out: Estimated Cmax, Mean (SD)
  Cmax: 18100 ng/mL
150 mg, compartmental, read-out: Estimated Cmax, Median
  Cmax: 18400 ng/mL
150 mg, compartmental, read-out: Estimated Cmax, Minimum, maximum
  Cmax: 14200 to 20600 ng/mL
150 mg, compartmental, read-out: Vss, Mean (SD)
  Vd: 13 L
150 mg, compartmental, read-out: Vss, Median
  Vd: 13 L
150 mg, compartmental, read-out: Vss, Minimum, maximum
  Vd: 9 to 17 L
150 mg, compartmental, read-out: t1/2, Mean (SD) (converted)
  half-life: 1.8 h
150 mg, compartmental, read-out: t1/2, Median (converted)
  half-life: 1.4 h
150 mg, compartmental, read-out: t1/2, Minimum, maximum
  half-life: 1.1 to 3.3 h
150 mg, noncompartmental, read-out: AUC0-t, Mean (SD)
  AUC(0-t): 6980 ng·h/mL
150 mg, noncompartmental, read-out: AUC0-t, Median
  AUC(0-t): 6900 ng·h/mL
150 mg, noncompartmental, read-out: AUC0-t, Minimum, maximum
  AUC(0-t): 4970 to 9330 ng·h/mL
150 mg, noncompartmental, read-out: AUCinf, Mean (SD)
  AUC(0-inf): 6990 ng·h/mL
150 mg, noncompartmental, read-out: AUCinf, Median
  AUC(0-inf): 6920 ng·h/mL
150 mg, noncompartmental, read-out: AUCinf, Minimum, maximum
  AUC(0-inf): 4980 to 9340 ng·h/mL
150 mg, noncompartmental, read-out: CL, Mean (SD) (converted)
  clearance: 372 mL/min
150 mg, noncompartmental, read-out: CL, Median (converted)
  clearance: 363 mL/min
150 mg, noncompartmental, read-out: CL, Minimum, maximum
  clearance: 268 to 502 mL/min
150 mg, noncompartmental, read-out: Cmax, Mean (SD)
  Cmax: 17100 ng/mL
150 mg, noncompartmental, read-out: Cmax, Median
  Cmax: 17000 ng/mL
150 mg, noncompartmental, read-out: Cmax, Minimum, maximum
  Cmax: 14900 to 20000 ng/mL
150 mg, noncompartmental, read-out: Vss, Mean (SD)
  Vd: 13.6 L
150 mg, noncompartmental, read-out: Vss, Median
  Vd: 13.2 L
150 mg, noncompartmental, read-out: Vss, Minimum, maximum
  Vd: 9.9 to 16.6 L
150 mg, noncompartmental, read-out: t1/2, Mean (SD) (converted)
  half-life: 1.23 h
150 mg, noncompartmental, read-out: t1/2, Median (converted)
  half-life: 1.25 h
150 mg, noncompartmental, read-out: t1/2, Minimum, maximum
  half-life: 0.97 to 1.52 h
300 mg, compartmental, read-out: AUCinf, Mean (SD)
  AUC(0-inf): 16400 ng·h/mL
300 mg, compartmental, read-out: AUCinf, Median
  AUC(0-inf): 16400 ng·h/mL
300 mg, compartmental, read-out: AUCinf, Minimum, maximum
  AUC(0-inf): 11500 to 22600 ng·h/mL
300 mg, compartmental, read-out: CL, Mean (SD) (converted)
  clearance: 323 mL/min
300 mg, compartmental, read-out: CL, Median (converted)
  clearance: 305 mL/min
300 mg, compartmental, read-out: CL, Minimum, maximum
  clearance: 222 to 435 mL/min
300 mg, compartmental, read-out: Estimated Cmax, Mean (SD)
  Cmax: 46300 ng/mL
300 mg, compartmental, read-out: Estimated Cmax, Median
  Cmax: 43400 ng/mL
300 mg, compartmental, read-out: Estimated Cmax, Minimum, maximum
  Cmax: 31000 to 70100 ng/mL
300 mg, compartmental, read-out: Vss, Mean (SD)
  Vd: 11 L
300 mg, compartmental, read-out: Vss, Median
  Vd: 11 L
300 mg, compartmental, read-out: Vss, Minimum, maximum
  Vd: 8 to 16 L
300 mg, compartmental, read-out: t1/2, Mean (SD) (converted)
  half-life: 1.5 h
300 mg, compartmental, read-out: t1/2, Median (converted)
  half-life: 1.2 h
300 mg, compartmental, read-out: t1/2, Minimum, maximum
  half-life: 1 to 2.5 h
300 mg, noncompartmental, read-out: AUC0-t, Mean (SD)
  AUC(0-t): 16500 ng·h/mL
300 mg, noncompartmental, read-out: AUC0-t, Median
  AUC(0-t): 16500 ng·h/mL
300 mg, noncompartmental, read-out: AUC0-t, Minimum, maximum
  AUC(0-t): 11600 to 23100 ng·h/mL
300 mg, noncompartmental, read-out: AUCinf, Mean (SD)
  AUC(0-inf): 16500 ng·h/mL
300 mg, noncompartmental, read-out: AUCinf, Median
  AUC(0-inf): 16500 ng·h/mL
300 mg, noncompartmental, read-out: AUCinf, Minimum, maximum
  AUC(0-inf): 11600 to 23100 ng·h/mL
300 mg, noncompartmental, read-out: CL, Mean (SD) (converted)
  clearance: 322 mL/min
300 mg, noncompartmental, read-out: CL, Median (converted)
  clearance: 303 mL/min
300 mg, noncompartmental, read-out: CL, Minimum, maximum
  clearance: 217 to 430 mL/min
300 mg, noncompartmental, read-out: Cmax, Mean (SD)
  Cmax: 42200 ng/mL
300 mg, noncompartmental, read-out: Cmax, Median
  Cmax: 42200 ng/mL
300 mg, noncompartmental, read-out: Cmax, Minimum, maximum
  Cmax: 32000 to 58100 ng/mL
300 mg, noncompartmental, read-out: Vss, Mean (SD)
  Vd: 11.7 L
300 mg, noncompartmental, read-out: Vss, Median
  Vd: 11.1 L
300 mg, noncompartmental, read-out: Vss, Minimum, maximum
  Vd: 8.9 to 15.1 L
300 mg, noncompartmental, read-out: t1/2, Mean (SD) (converted)
  half-life: 1.45 h
300 mg, noncompartmental, read-out: t1/2, Median (converted)
  half-life: 1.14 h
300 mg, noncompartmental, read-out: t1/2, Minimum, maximum
  half-life: 0.99 to 2.35 h
300 mg, read-out: CL (converted)
  clearance: 322 mL/min
300 mg, read-out: mean terminal-phase t1/2 (converted)
  half-life: 1.45 h
Across doses 20 to 300 mg, read-out: AUCinf
  AUC(0-inf): 583 to 16500 ng·h/mL
At the mg dose, read-out: mean terminal-phase t1/2 (converted)
  half-life: 0.86 h
Decreased with increasing dose, read-out: Vss
  Vd: 12 to 18 L
read-out: volume of distribution of the central compartment (Vc)
  Vd: ~6 L
20 mg, compartmental
  V1, Mean (SD): 6.61 (3.20) L
  V1, Median: 6.13 L
20 mg, noncompartmental
  % Excreted Unchanged, Mean (SD): 28.5 (9.6) %
  % Excreted Unchanged, Median: 31.0%
60 mg, compartmental
  V1, Mean (SD): 6.62 (1.65) L
  V1, Median: 6.69 L
60 mg, noncompartmental
  % Excreted Unchanged, Mean (SD): 39.1 (4.0) %
  % Excreted Unchanged, Median: 40.6%
150 mg, compartmental
  V1, Mean (SD): 6.09 (1.42) L
  V1, Median: 5.86 L
150 mg, noncompartmental
  % Excreted Unchanged, Mean (SD): 32.5 (13.9) %
  % Excreted Unchanged, Median: 33.3%
300 mg, compartmental
  V1, Mean (SD): 4.91 (1.56) L
  V1, Median: 5.59 L
300 mg, noncompartmental
  % Excreted Unchanged, Mean (SD): 43.6 (8.8) %
  % Excreted Unchanged, Median: 46.3%

Source: patent publication US8772250B2, “Compositions and methods for treating ischemia and ischemia-reperfusion injury” (Ischemix, LLC, priority 2010, dated 2014)
